US20230373938A1, “BENZOTHIAZOLE MEROTERPENOID COMPOUND AND DERIVATIVE THEREOF, AND PREPARATION METHOD THEREFOR AND USE THEREOF” (THIRD INSTITUTE OF OCEANOGRAPHY, MINISTRY OF NATURAL …, priority 2020, published 2023)

Experiments:
RXRalpha = target: T1, RXRalpha (Homo sapiens, UniProt P19793); test: RXRalpha dual-luciferase reporter gene assay (transcriptional activity); assay type: cell-based; conditions: 293T cells, in combination with agonist 9-cis-RA; dosed 12.5, 25, 50 μM for 12 h
T1 construct: expressed in transfected cells; host or cells: Human embryonic kidney cells (293T)
T1 sequence (P19793 1-462): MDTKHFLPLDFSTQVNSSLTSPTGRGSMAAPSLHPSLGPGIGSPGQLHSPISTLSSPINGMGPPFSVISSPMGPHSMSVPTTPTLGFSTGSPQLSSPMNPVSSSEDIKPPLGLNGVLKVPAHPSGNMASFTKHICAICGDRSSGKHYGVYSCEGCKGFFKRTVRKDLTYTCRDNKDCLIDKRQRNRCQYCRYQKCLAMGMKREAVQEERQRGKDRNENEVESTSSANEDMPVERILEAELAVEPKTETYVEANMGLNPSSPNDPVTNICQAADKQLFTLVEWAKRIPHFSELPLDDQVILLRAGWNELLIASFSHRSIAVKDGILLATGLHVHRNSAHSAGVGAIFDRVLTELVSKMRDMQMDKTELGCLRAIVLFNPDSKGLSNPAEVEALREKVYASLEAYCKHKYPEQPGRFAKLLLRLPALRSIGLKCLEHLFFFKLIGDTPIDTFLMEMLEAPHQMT
From the text: In this embodiment, a dual-luciferase reporter (DLR) assay system consisting of firefly luciferase (FL) reporter gene and Rellina luciferase (RL) reporter gene is used. The RL reporter gene is used as an internal control to normalize measurement results of the FL reporter gene. In cells lacking endogenous RXRalpha and necessary components for downstream signal transduction, a receptor RXRalpha and reporter gene containing RXRalpha response elements are introduced by transfection, so as to simply simulate a transcriptional activation process of a receptor in vivo.
In this embodiment, the following three groups are set: • Negative control group: culture solution of an equal amount, 0.1% DMSO, containing cells, without the compounds as represented by formulas I to III; • Positive control group: culture solution of an equal amount, added with an RXRalpha agonist 9-cis-retinoic acid with or without an antagonist UVI3003 respectively; • Treatment group: cell culture solutions added with an RXRalpha agonist 9-cis-retinoic acid and the compounds as represented by formulas I to III respectively.
Specific steps include: • (1) Cell culture and preparation of test solution • Human embryonic kidney cells (293T) are cultured in a DMEM medium containing 10% fetal bovine serum (FBS) in an incubator containing 5% CO2 at 37° C., and passaged regularly based on growth law of the cells. […]

RXRalpha-LBD protein = target: T2, RXRalpha-LBD protein (Homo sapiens, UniProt P19793); test: Biacore (surface plasmon resonance) binding to RXRalpha-LBD protein; conditions: Biacore T200, CM5 chip
T2 sequence (P19793 227-458 limits assumed): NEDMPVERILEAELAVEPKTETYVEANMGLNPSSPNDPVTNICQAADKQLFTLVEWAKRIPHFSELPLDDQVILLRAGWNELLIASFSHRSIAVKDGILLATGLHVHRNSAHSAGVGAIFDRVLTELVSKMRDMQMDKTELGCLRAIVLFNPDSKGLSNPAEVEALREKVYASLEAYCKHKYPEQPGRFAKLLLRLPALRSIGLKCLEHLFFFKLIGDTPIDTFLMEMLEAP
Description: A purified nuclear receptor RXRalpha-LBD protein is coupled with a CM5 chip of Biacore. Then the compounds to be tested are diluted with PBS to prepare solutions at different concentrations before sampling. When samples to be tested flow over the surface of the chip, the binding between biomolecules results in an increase in surface mass of a biosensor, so that refractive index changes. By monitoring angular variation of SPR, kinetic binding and dissociation constants, affinity and specificity of analytes can be automatically obtained. A BiacoreT200 detector can detect interaction between a target protein and the samples to be tested in real time, and binding strength is expressed in response unites (RU) (a change in concentration of binding substances on the chip surface by 1 pg/mm2 is defined as 1 RU). The compounds I to III are screened by Biacore technology, and a binding constant KD of small molecular compounds with RXRalpha-LBD is calculated based on a concentration gradient experiment.

C=C1CCC2C(C)(C)CCC[C@]2(C)[C@H]1Cc1cc(O)c(C)c2sc(C(=O)NCC(=O)O)nc12 (stereo partly drawn) [compound I, meroterpenthiazole A]
inhibition of the transcription of RXRalpha by 9-cis-RA (RXRalpha): inhibit the transcription of RXRalpha by 9-cis-RA in a concentration-dependent manner
binding mode to RXRalpha protein (RXRalpha-LBD protein): fast binding and fast dissociation mode
Kd (RXRalpha-LBD protein; concentration gradient, read-out: binding constant KD with RXRalpha-LBD): 12.3 µM
